{
  "source": "paper PMC7616177",
  "about": "“From structure to clinic: Design of a muscarinic M1 receptor agonist with the potential to treat Alzheimer’s disease” (Cell, 2021)",
  "key": {"human M1 receptor": {"biological_target": "T1, human M1 receptor (Homo sapiens, UniProt P11229)", "T1 construct": "expressed in transfected cells", "T1 sequence (P11229 1-460)": "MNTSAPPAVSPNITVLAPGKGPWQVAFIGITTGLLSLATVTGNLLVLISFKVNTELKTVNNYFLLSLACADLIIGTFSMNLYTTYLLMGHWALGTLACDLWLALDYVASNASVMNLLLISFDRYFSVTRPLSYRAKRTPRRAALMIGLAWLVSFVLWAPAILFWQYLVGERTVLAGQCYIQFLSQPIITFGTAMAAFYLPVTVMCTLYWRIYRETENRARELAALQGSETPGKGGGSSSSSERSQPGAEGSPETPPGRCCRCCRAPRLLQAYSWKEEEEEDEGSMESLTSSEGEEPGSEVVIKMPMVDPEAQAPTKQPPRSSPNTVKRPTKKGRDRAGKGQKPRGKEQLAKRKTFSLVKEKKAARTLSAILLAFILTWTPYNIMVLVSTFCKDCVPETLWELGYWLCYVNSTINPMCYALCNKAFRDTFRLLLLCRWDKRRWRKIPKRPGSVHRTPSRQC", "assay": "M1-receptor functional agonist assays (pERK1/2 and calcium mobilisation) for hits and SAR", "format": "cell-based"}, "M2-receptor [1]": {"biological_target": "T2, M2-receptor (Homo sapiens, UniProt P08172)", "T2 sequence (P08172 1-466)": "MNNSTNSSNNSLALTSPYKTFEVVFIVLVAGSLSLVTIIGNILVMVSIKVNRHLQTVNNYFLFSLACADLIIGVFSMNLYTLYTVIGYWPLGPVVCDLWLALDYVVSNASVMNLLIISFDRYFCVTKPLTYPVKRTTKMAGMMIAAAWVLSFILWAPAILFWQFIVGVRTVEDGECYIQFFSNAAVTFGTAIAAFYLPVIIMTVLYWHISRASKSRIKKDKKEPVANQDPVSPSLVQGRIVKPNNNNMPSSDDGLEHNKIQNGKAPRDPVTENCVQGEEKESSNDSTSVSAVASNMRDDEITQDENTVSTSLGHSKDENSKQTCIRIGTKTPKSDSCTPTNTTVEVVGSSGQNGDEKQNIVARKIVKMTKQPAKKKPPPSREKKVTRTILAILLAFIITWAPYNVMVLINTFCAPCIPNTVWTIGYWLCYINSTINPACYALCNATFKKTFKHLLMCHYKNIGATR", "assay": "[3H]-NMS equilibrium radioligand binding, M2", "method": "Non-specific binding (NSB) was determined in the presence of 1 μM atropine). Reactions were terminated by rapid filtration onto GF/B filter paper (Whatman, Maidstone, UK) and three washes with 3 mL ice-cold 0.9% NaCl using a Brandel harvester (M-24TI; Brandel, Fort Lauderdale, FL). Membrane bound radioactivity was determined by liquid scintillation (Ultima Gold; PerkinElmer) counting.\nData was analyzed using PRISM (GraphPad). For saturation binding, non-specific and total binding data were analyzed to a one site binding model. DPM was converted to fmol/mg to compare across constructs. […] […] The Cheng Prusoff equation was used to estimate pKi ([Cheng and Prusoff, 1973])."}, "C57BL/6J mice": {"tested_on": "C57BL/6J mice", "assay": "Scopolamine-induced deficit in contextual fear conditioning", "format": "in vivo, mouse", "conditions": "mice, 10, 30 or 100 mg/kg i.p. with scopolamine 1.5 mg/kg i.p.", "method": "C57BL/6J male mice (aged 8−12 weeks) were acclimatized to the behavioral testing suite at least 2 hours prior to the test. […] Mice were placed in the conditioning chamber (ANY-maze Fear Conditioning System; Stoelting, Dublin, Ireland); after a 2-min adaptation period, they received three tone/foot shock pairings where the foot shock (un-conditioned stimulus; 2 s; 0.4 mA) always co-terminated with a tone (conditioned stimulus; 2.8 kH; 85 dB; 30 s). The conditioned stimulus−unconditioned stimulus pairings were separated by 1-min intervals. After the mice completed training, they remained in the conditioning chamber for 1 min and were then returned to their home cages. The next day, the mice were placed back in the conditioning chamber, and time spent immobile was recorded for 3 min to assess context-dependent learning. Data were analyzed using ANY-maze software (Stoelting)."}, "locomotor activity": {"tested_on": "locomotor activity", "assay": "Locomotor activity alone or with amphetamine", "format": "in vivo", "conditions": "doses up to 100 mg/kg"}, "[2]": {"assay": "Non-human primate exposure", "format": "in vivo, non-human primates", "conditions": "for Predicted brain exposure Cu,br: non-human primates"}, "M2-receptor [3]": {"biological_target": "T2, M2-receptor", "assay": "M2-receptor functional agonist assay", "format": "cell-based", "design": "expressed in transfected cells", "method": "(§1) Functional assays were performed using the Alphascreen Surefire phopho-ERK1/2 assay. […] Once adhered, cells were serum starved overnight. Agonist stimulation was performed by the addition of […] agonist to the cells for a pre-optimized 5 min period (37°C). Media was removed and 50 μl of lysis buffer added. After 15 min a 4 μl sample was transferred to a 384-well plate and 7 μl of detection mixture added."}, "M4-receptor": {"biological_target": "T3, M4-receptor (Homo sapiens, UniProt P08173)", "T3 sequence (P08173 1-479)": "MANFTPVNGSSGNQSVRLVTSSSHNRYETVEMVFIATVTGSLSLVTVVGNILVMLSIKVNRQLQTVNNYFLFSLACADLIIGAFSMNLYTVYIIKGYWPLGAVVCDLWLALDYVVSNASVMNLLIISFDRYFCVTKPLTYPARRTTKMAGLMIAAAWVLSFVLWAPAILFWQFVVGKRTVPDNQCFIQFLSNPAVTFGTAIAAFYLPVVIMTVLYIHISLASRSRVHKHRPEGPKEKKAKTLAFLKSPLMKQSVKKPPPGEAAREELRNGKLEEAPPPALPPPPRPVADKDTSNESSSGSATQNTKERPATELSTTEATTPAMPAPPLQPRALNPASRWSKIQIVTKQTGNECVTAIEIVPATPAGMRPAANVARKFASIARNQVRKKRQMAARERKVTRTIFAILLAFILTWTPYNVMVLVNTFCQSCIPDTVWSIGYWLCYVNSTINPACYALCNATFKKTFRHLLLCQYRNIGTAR", "assay": "M4-receptor functional agonist assay", "format": "cell-based", "design": "expressed in transfected cells", "method": "as §1"}, "rats": {"tested_on": "rats", "assay": "Cardiovascular telemetry in rats", "conditions": "telemetered rats"}},
  "data": [
    {"smiles": "CCOC(=O)N1CCC[C@H](N2CCC(C(=O)NC3(C)CCC3)CC2)CC1", "note": "[HTL9936, ethyl (S)-4-(4-((1-methylcyclobutyl)carbamoyl)piperidin-1-yl)azepane-1-carboxylate]", "values": [
      {"measurement": "EC50", "setting": "human M1 receptor", "value": 32, "unit": "nM"},
      {"measurement": "Ki", "setting": "M2-receptor [1]", "value": 3160, "unit": "nM"},
      {"measurement": "Effect on scopolamine-induced fear learning deficit", "setting": "C57BL/6J mice", "value": "dose-dependent restoration of learning and memory responses"},
      {"measurement": "Adverse responses and locomotor activity", "setting": "locomotor activity", "value": "no adverse responses nor had any effect on locomotor activity"},
      {"measurement": "Predicted brain exposure Cu,br", "setting": "[2]; 0.3 mg/kg subcutaneous", "value": 20, "unit": "nM"},
      {"measurement": "Predicted brain exposure Cu,br", "setting": "[2]; 3 mg/kg subcutaneous", "value": 198, "unit": "nM"},
      {"measurement": "Oral bioavailability", "setting": "[2]; primates", "value": "low oral bioavailability"},
      {"measurement": "EC50", "setting": "M2-receptor [3]", "value": "> 20000", "unit": "nM"},
      {"measurement": "M2-receptor agonist activity", "setting": "M2-receptor [3]", "value": "no detectable agonism"},
      {"measurement": "EC50", "setting": "M4-receptor", "value": 398, "unit": "nM"},
      {"measurement": "M4-receptor agonist activity", "setting": "M4-receptor", "value": "partial agonist activity"},
      {"measurement": "Cardiovascular effects at 3 mg/kg", "setting": "rats; 3 mg/kg oral", "value": "No significant effects"},
      {"measurement": "Heart rate and mean arterial blood pressure", "setting": "rats; oral 3, 10, 30 and 100 mg/kg, 5 h post-dose average", "value": "dose-dependent increase in heart rate and mean arterial blood pressure"}
    ]}
  ]
}
